Measured values taken from patent US20260345485A1, “INTRATHECAL NANOPARTICLE DELIVERY FOR TREATMENT OF LEPTOMENINGEAL TUMORS WITH CORE-SHELL PARTICLES MADE OF HYPERBRANCHED POLYGLYCEROL AND POLYLACTIC ACID” (priority 2022, published 2026).
Like-named read-outs stand apart in the source and are kept apart here.

Assays:
[1] = tested on: DAOY, D341, and D283 cells; test: drug combination synergy (Loewe model, CellTiter-Glo viability); assay type: cell-based
DAOY cells [2] = test: DAOY intracisternal xenograft, single-dose treatment; assay type: in vivo, J:Nu mice; settings: single dose 0.1 mg/kg
Description: Intra-cisternal transplantation of DAOY cells stably expressing luciferase was used for in vivo studies. A surgical catheter was implanted into their cisterna magna, and used for both cellular implantation and IT dosage during treatment. Mice were treated when their tumoral luminescence burden was detectable at […] BLI (unit), 7 days post-implantation. Mice were treated once, at the same dose level of 0.1 mg/kg with either BMN NPs or free BMN-673 (FIG. 7A).

D341 cells = test: D341 xenograft with existing spinal metastasis; assay type: in vivo, mice
Description: In the D341 model, most mice develop spinal metastasis that is detectable by IVIS imaging within 7 days of inoculation, so it was tested whether BMN-NPs and free BMN were efficacious against existing spinal metastasis by starting treatment at day 7 in the presence of leptomeningeal metastasis. […] This therapy was improved with a temozolomide (TMZ) combination approach. The synergy between TMZ and PARPi is well documented in vitro, as PARP1 trapping sensitizes cells to the DNA methylation mechanism of TMZ, but in vivo, a reduction in the PARPi dose is necessary to prevent acute toxicity.

[3] = hematological toxicity after intrathecal dosing; settings: for blood cell counts: at MTD
Description: For hematological analysis, healthy nude mice (n=5 per time point) were administered either free BMN-673 (0.05 mg/kg) or BMN-NPs (0.5 mg/kg). At 3 days and 7 days post administration, 100 μL of blood was drawn via cardiac puncture using 15 μL EDTA-coated tubes. Levels of blood cell counts were measured using HEMA VET® HV950 multispecies hematologic analyzer (Drew Scientific, Oxford, CT, USA). Spleens and livers were harvested, fixed in formalin overnight, and H&E stained for histopathological evaluation.
To further test systemic toxicity differences between BMN-NPs and free BMN, red blood cells, white blood cells, and platelet levels were monitored in mice at day 3 and day 7 following two bi-weekly administrations at MTD (FIG. 5C).

PARP1 = settings: cited from earlier work
DAOY cells [4] = test: DAOY intracisternal xenograft, twice-weekly treatment; settings: 0.25 mg/kg BMN-NPs or 0.03 mg/kg free BMN-673
Description: DAOY cells (ATCC) were inoculated in 8 week J:Nu female mice at 10^5 cells suspended in 6 μL of DPBS. Tumor growth was followed by luminescence imaging twice a week, implantation. For luminescence imaging, mice were injected with 200 μL of a solution of D-Luciferin (15 mg/ml, Caliper Life Science) and imaged 5 minutes after injection using an IVIS200 in vivo imaging system (Xenogen, Caliper Life Science). An image showing light intensity (photons/second) was generated and the signal in each mouse was quantified using Living Image 4.0 software (Xenogen). On day 7 after tumor injection, all mice were randomized and treated with BMN-673 loaded NPs or free BMN-673 drug either once a week or bi-weekly for two weeks. Tumors were monitored for regression or progression with BLI, and left until neurological symptoms appeared or humane endpoint was reached (slow motion, >20% weight lose).
This study was repeated using twice-weekly dosing of 0.25 mg/kg of BMN-NPs or 0.03 mg/kg for free BMN-673 (FIGS. 7D-7F).

[5] = tolerability / maximum tolerated dose after intrathecal dosing
Description: To investigate toxicity, healthy female nude mice were first administered a specific dose of either free BMN-673 or BMN-NPs ranging from 0.03 mg/kg to 1.25 mg/kg. The mice were monitored for weight-loss or other signs of distress, and if the dose was well tolerated, 4 additional mice were dosed and monitored (n=5).
Toxicology studies were conducted in healthy female nude mice to characterize the safety of BMN-NPs in vivo. […] Increasing doses of either BMN-NP or free BMN-673 were administered to animals. Body weight loss and overall animal health were closely monitored.

[6] = assay type: in vivo; settings: i.v., after 20 minutes, tumor-bearing mice
Description: CNS retention of ^89Zr-DFO-NPs was assessed in tumor-bearing mice. A leptomeningeal metastatic medulloblastoma model was administered DAOY cells stably expressing luciferase by IT injection into the CM. […] Two mice were injected intravenously with Gd-DTPA, and imaged via MRI after 20 minutes.

[7] = tested on: medulloblastoma cell line D283; settings: 1 micromolar Olaparib with radiation; cited from earlier work
[8] = tested on: breast, prostate and ovarian cancer; settings: clinical trials; cited from earlier work
[9] = combined with BMN-673, across all cell lines

SMILES: CCc1c2c(nc3ccc(OC(=O)N4CCC(N5CCCCC5)CC4)cc13)-c1cc3c(c(=O)n1C2)COC(=O)[C@]3(O)CC [Irinotecan]
- synergy with BMN-673 [1, 9]: did not show consistent synergist action

SMILES: Cn1ncnc1[C@H]1c2n[nH]c(=O)c3cc(F)cc(c23)N[C@@H]1c1ccc(F)cc1 [BMN-673, talazoparib]
- body weight loss versus BMN-NP group (DAOY cells [2]): lost significantly more weight than the BMN-NP group
- mice with tumor reduction benefit (DAOY cells [2]): one out five
- effect on cerebral and spinal tumor burden (D341 cells; four repeat doses, free BMN-673 at equitoxic dose, start day 7): no effect
- tolerability (D341 cells; in combination with temozolomide): not tolerated at even the lowest doses of BMN-673
- blood cell counts ([3]; 3 days post-treatment): a decrease in all leukocytes except for monocytes, and also showed a reduction in platelet count
- blood cell counts ([3]; by 7 days): did not show an improvement outside of basophil count
- blood cell levels ([3]; two bi-weekly administrations, 0.05 mg/kg/week free BMN, day 3 to day 7): progressive leukopenia and thrombocytopenia at day 3 which did not improve appreciably at day 7
- PARP1 trapping (PARP1): potent PARP1 trap
- synergy with TMZ (combinatorial index) ([1]; Loewe synergy model, with temozolomide): high levels of synergy
- cell viability compared to BMN-673 alone ([1]; incremental log-fold increases in BMN-673 in presence of TMZ): decreased viability
- tumor response (DAOY cells [4]): tumors continued to progress with treatment of free drug
- body weight loss ([5]; 0.03 mg/kg twice a week, IT): less than 10%
- body weight loss ([5]; 0.05 mg/kg, single IT dose): less than 15%
- dose above which toxicity-related symptoms developed (lethargy, labored breathing, death) ([5]; IT): greater than 0.06 mg/kg
- LD50 ([5]; mouse, in vivo): 0.125 mg/kg
- MTD ([5]; mouse, in vivo): 0.05 mg/kg
- lethal dose (lethal at any dose at or higher than) ([5]; single IT dose, J:Nu mice): ≥ 0.06 mg/kg

SMILES: C[C@]1(c2nc3c(C(N)=O)cccc3[nH]2)CCCN1 [veliparib]
- PARP1 trapping (PARP1): relatively poor PARP1 trapping ability

SMILES: O=C(O)CN(CCN(CC(=O)O)CC(=O)O)CCN(CC(=O)O)CC(=O)O.[Gd+3] [Gd-DTPA]
- signal in the brain by MRI [6]: no detectable Gd-DTPA signal in the brain

SMILES: CC[C@@]1(O)C(=O)OCc2c1cc1n(c2=O)Cc2cc3c(CN(C)C)c(O)ccc3nc2-1 [Topotecan]
- synergy with BMN-673 [1, 9]: did not show consistent synergist action

SMILES: O=NN(CCCl)C(=O)NC1CCCCC1 [Lomustine]
- synergy with BMN-673 [1, 9]: did not show consistent synergist action

SMILES: O=C(c1cc(Cc2n[nH]c(=O)c3ccccc23)ccc1F)N1CCN(C(=O)C2CC2)CC1 [Olaparib, olaparib]
- DNA double stranded breaks [7]: high levels of DSB
- anti-tumour effect and side effects [8]: anti-tumour effect and side effects of grade 1 or 2

SMILES: O=P1(N(CCCl)CCCl)NCCCO1 (stereo not shown) [Cyclophosphamide]
- synergy with BMN-673 [1]: did not show consistent synergist action
